Test results taken from US20200079765A1, “SUBSTITUTED HETEROARYL PYRROLONES AND SALTS THEREOF AND USE THEREOF AS HERBICIDAL ACTIVE SUBSTANCES” (Bayer CropScience Aktiengesellschaft, priority 2016, published 2020).
Values belong to the compound of their own block, whether it stands above or below them.

What was measured:
[1] = target: T1, photosystem II (PS II) (Spinacia oleracea, UniProt P69560); assay: Measurement of the PS II activity in thylakoid membranes (DCPIP reduction, Experimental Part 3, Table E1); format: biochemical; conditions: spinach thylakoid membranes
T1 construct: the chloroplasts were osmotically ruptured and the thylakoid membranes were then obtained by centrifugation; from tissue; host or cells: thylakoid membranes from fresh spinach leaves
Procedure: Cooled fresh spinach leaves were comminuted and homogenized in 50 mM phosphate buffer, pH 6.8. 10 mM KCl, 0.34 M sucrose (sucrose buffer) (blender, 1 g of plant material/ml). The homogenate was subsequently filtered through 4 layers of Miracloth and the chloroplasts were isolated by centrifugation, i.e. 10 min of centrifugation at 4400×g (4° C.). The sediment was suspended in 25 ml of sucrose buffer and re-centrifuged for 10 min at 4400×g (4° C.). The sediment was then suspended in 40 ml of 50 mM phosphate buffer, pH 6.8, 10 mM KCl, without sucrose. In this step, the chloroplasts were osmotically ruptured and the thylakoid membranes were then obtained by centrifugation (10 min, 4400×g, 4° C.). The membrane sediment was finally suspended in about 20 ml of 50 mM phosphate buffer, pH 6.8, 10 mM KCl. Following protein determination and activity determination, the membrane suspension was divided into aliquots and frozen in liquid nitrogen. The aliquots were stored at −80° C. Under these conditions, the photosystem II preparation was storage stable for at least three months. The activity determination of photosystem II (PS II) was then carried out using the following test principle: The electron transfer from PS II to an artificial electron acceptor, 2,6-dichlorophenolindophenol (DCPIP), was measured with exposure to light. The concentration of the blue oxidized form of DCPIP was determined spectrophotometrically at wavelength λ=595 nm. […] The activity determination was carried out in microtiter plates (96 cavities) in a reaction volume of 200 μl. Here, 155 μl of dilute membrane suspension were initially charged in 50 mM of phosphate buffer, pH 6.8, 10 mM KCl. Depending on the activity of the PS II preparation, the dilution was adjusted such that the measurement of the decrease in absorption (λ=595 nm) was linear for at least 10 min. In each case 5 μl solution of the test compounds of a concentration of 100 μM in DMSO were added to the enzyme suspension; controls contained 5 μl DMSO; the final concentration of DMSO in the reaction batch was thus 2.5% (v/v); this concentration had no adverse effect on the enzymatic activity. On each microtiter plate, a known PS II inhibitor, for example metribuzin, was used as standard, which allowed the quality of the PS II test to be assessed. The reaction was started by addition of 40 μl DCPIP solution (600 μM in distilled water); the final concentration of DCPIP was 120 μM. Measurement of absorption was carried out over a period of 10 min at 22° C. and with exposure to light. Using metribuzin as comparative substance, the results for the efficacy of the compounds of the general formula (I) at 100 μM are stated in the table below using the following classification: ++++ (inhibition≥90%), +++ (90%>inhibition≥70%), ++ (70%>inhibition≥50%), + (50%>inhibition≥30%).
Effects of selected compounds of the general formula (I) according to the following table E1: […]

[2] = system: Setaria viridis; assay: Herbicidal pre-emergence action (Experimental Part 2, D); format: in vivo; conditions: pre-emergence (Part 2), application rate 1280 g/ha, scored visually after about 3 weeks
From the text: (§1) Seeds of mono- and dicotyledonous weed plants were placed in plastic pots in sandy loam soil (doubly sown with in each case one species of mono- or dicotyledonous weed plants per pot) and covered with soil. The compounds of the invention, formulated in the form of wettable powders (WP) or as emulsion concentrates (EC), were then applied onto the surface of the covering soil as aqueous suspension or emulsion with addition of 0.5% additive at a water application rate of 600 liters per hectare (converted). After the treatment, the pots are placed in a greenhouse and kept under good growth conditions for the trial plants. After about 3 weeks, the effect of the preparations was scored visually in comparison with untreated controls as percentages. For example, 100% activity=the plants have died, 0% activity=like control plants. Tables D1 to D8 below show the effects of selected compounds of the general formula (I) according to Tables I.1 to I.116 on various harmful plants and an application rate corresponding to 1280 g/ha or 320 g/ha, which were obtained by the experimental procedure mentioned above.

[3] = system: Abutilon theophrasti; assay: as above; format: in vivo; conditions: pre-emergence (Part 2), application rate 1280 g/ha, scored visually after about 3 weeks
From the text: as §1

[4] = system: Amaranthus retroflexus; assay: as above; format: in vivo; conditions: pre-emergence (Part 2), application rate 1280 g/ha, scored visually after about 3 weeks
From the text: as §1

[5] = system: Stellaria media; assay: as above; format: in vivo; conditions: pre-emergence (Part 2), scored visually after about 3 weeks
From the text: as §1

[6] = system: Matricaria inodora; assay: as above; format: in vivo; conditions: pre-emergence (Part 2), application rate 320 g/ha, scored visually after about 3 weeks
From the text: as §1

[7] = system: Poa annua; assay: as above; format: in vivo; conditions: pre-emergence (Part 2), application rate 320 g/ha, scored visually after about 3 weeks
From the text: as §1

[8] = system: Abutilon theophrasti; assay: Herbicidal post-emergence action (Experimental Part 2, C); format: in vivo; conditions: post-emergence (Part 2), application rate 320 g/ha, rated visually after about 3 weeks
Procedure: (§2) Seeds of mono- and dicotyledonous weed plants were placed in plastic pots in sandy loam soil (doubly sown with in each case one species of mono- or dicotyledonous weed plants per pot), covered with soil and cultivated in a greenhouse under controlled growth conditions. 2 to 3 weeks after sowing, the test plants were treated at the one-leaf stage. The compounds of the invention, formulated in the form of wettable powders (WP) or as emulsion concentrates (EC), were applied onto the green parts of the plants as aqueous suspension or emulsion with addition of 0.5% additive at a water application rate of 600 liters per hectare (converted). After the test plants had been kept in the greenhouse under optimum growth conditions for about 3 weeks, the activity of the preparations was rated visually in comparison to untreated controls. For example, 100% activity=the plants have died, 0% activity=like control plants. Tables C1 to C8 below show the effects of selected compounds of the general formula (I) according to Tables I.1 to I.116 on various harmful plants and an application rate corresponding to 1280 g/ha or 320 g/ha, which were obtained by the experimental procedure mentioned above.

[9] = system: Stellaria media; assay: as above; format: in vivo; conditions: post-emergence (Part 2), application rate 1280 g/ha, rated visually after about 3 weeks
Procedure: as §2

[10] = system: Matricaria inodora; assay: as above; format: in vivo; conditions: post-emergence (Part 2), application rate 1280 g/ha, rated visually after about 3 weeks
Procedure: as §2

[11] = system: Amaranthus retroflexus; assay: as above; format: in vivo; conditions: post-emergence (Part 2), application rate 320 g/ha, rated visually after about 3 weeks
Procedure: as §2

Compound: CSc1nnc(C(C)(C)C)c(=O)n1N [metribuzin, reference compound]
- Effect (inhibition of PS II activity) [1]: ++++ (inhibition≥90%)

Compound: CC1=CC(=O)N(c2cc(C(C)(C)C)n(C)n2)C1O (centres unmarked) [I.1-315]
- Effect (inhibition of PS II activity) [1]: ++++ (inhibition≥90%)

Compound: CC1=CC(=O)N(c2cc(CC(C)C)no2)C1O (centres unmarked) [I.1-697]
- Effect (inhibition of PS II activity) [1]: ++++ (inhibition≥90%)

Compound: CC1=CC(=O)N(c2cc(C(C)(C)C)no2)C1O (centres unmarked) [I.1-290, 5-Hydroxy-4-methyl-1-(3-tert-butyl-1,2-isoxazol-5-yl)-1,5-dihydro-2H-pyrrol-2-one]
- Setaria viridis, herbicidal activity [2]: 90%
- Abutilon theophrasti, herbicidal activity [3]: 90%
- Amaranthus retroflexus, herbicidal activity [4]: 100%
- Stellaria media, herbicidal activity ([5]; application rate 320 g/ha): 100%
- Matricaria inodora, herbicidal activity [6]: 100%
- Poa Annua, herbicidal activity [7]: 90%
- Effect (inhibition of PS II activity) [1]: ++++ (inhibition≥90%)
- Abutilon theophrasti, herbicidal activity [8]: 100%
- Stellaria media, herbicidal activity [9]: 100%
- Matricaria inodora, herbicidal activity [10]: 100%

Second part, led by results:

- Effect (inhibition of PS II activity) [1]: ++++ (inhibition≥90%)
Compound: CC1=CC(=O)N(c2cc(-c3ccccc3)ns2)C1O (centres unmarked) [I.1-86]

- Effect (inhibition of PS II activity) [1]: ++++ (inhibition≥90%)
Compound: CC1=CC(=O)N(c2cc(C)ns2)C1O (centres unmarked) [I.1-72]
- Amaranthus retroflexus, herbicidal activity [4]: 90%
- Stellaria media, herbicidal activity ([5]; application rate 1280 g/ha): 90%
- Amaranthus retroflexus, herbicidal activity [11]: 100%
- Matricaria inodora, herbicidal activity [10]: 100%

- Effect (inhibition of PS II activity) [1]: ++ (70%>inhibition≥50%)
Compound: CC1=CC(O)N(c2cc(C)ns2)C1=O (centres unmarked) [I.2-72]
